Target: T1, Thromboxane A2 receptor (Homo sapiens) (UniProt P21731)
T1 sequence (whole entry): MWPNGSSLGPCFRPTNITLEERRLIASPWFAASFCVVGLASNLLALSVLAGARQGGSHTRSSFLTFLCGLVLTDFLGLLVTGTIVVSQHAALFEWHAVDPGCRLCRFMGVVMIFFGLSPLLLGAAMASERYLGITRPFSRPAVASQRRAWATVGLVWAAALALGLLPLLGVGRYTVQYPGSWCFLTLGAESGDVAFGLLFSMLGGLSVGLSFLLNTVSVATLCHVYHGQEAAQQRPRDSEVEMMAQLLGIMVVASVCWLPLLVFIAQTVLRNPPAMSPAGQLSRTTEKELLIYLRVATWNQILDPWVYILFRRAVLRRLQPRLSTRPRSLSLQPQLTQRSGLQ
Test: Competition factor for Thromboxane A2 (TXA2) / Prostaglandin H2 (PGH2)-receptor was determined by CF=(ID50-test)/(ID50-standard); partial agonist
Format: functional

Point of comparison: `CCC#CC[C@H](C)[C@H](O)/C=C/[C@@H]1C2CC(c3ccc(-c4ccccc4)cc3)(CO2)[C@H]1C/C=C/CCCC(=O)O` (some centres not stated), CF 20. Against it:
- N#Cc1ccc(COC[C@@H]2C3CC(c4ccc(F)cc4)(CO3)[C@H]2C/C=C/CCCC(=O)O)cc1 (some centres not stated) — lower, 6
- O=C(O)CCC/C=C/C[C@H]1[C@H](/C=C/[C@@H](O)COc2ccc(F)cc2)C2CC1(c1ccc(F)cc1)CO2 (some centres not stated) — lower, 2
- CCC#CC[C@H](C)[C@H](O)C#C[C@@H]1C2CC(c3ccc(-c4ccccc4)cc3)(CO2)[C@H]1C/C=C/CCCC(=O)O (some centres not stated) — lower, 12

Target: T1, Thromboxane A2 receptor (Homo sapiens)
Test: Competition factor for Thromboxane A2 (TXA2) / Prostaglandin H2 (PGH2)-receptor was determined by CF=(ID50-test)/(ID50-standard); antagonist
Format: functional

In the case of `O=C(O)CCC/C=C/C[C@@H]1[C@@H](COCc2ccccc2)C2CC1(c1ccccc1)CO2` (some centres not stated), the CF is reported as 300.

Target: T1, Thromboxane A2 receptor (Homo sapiens)
Test: Competition factor for Thromboxane A2 (TXA2) / Prostaglandin H2 (PGH2)-receptor was determined by CF=(ID50-test)/(ID50-standard); not parallel

Point of comparison: `O=C(O)CCCCC[C@H]1[C@H](CNS(=O)(=O)c2ccc(Cl)c(Cl)c2)C2CC1(c1ccc(-c3ccccc3)cc1)CO2` (some centres not stated), CF 6. Against it:
- O=C(O)CCCCC[C@H]1[C@H](CNS(=O)(=O)c2ccc(Cl)cc2)C2CC1(c1ccc(-c3ccccc3)cc1)CO2 (some centres not stated) — lower, 0.3
- O=C(O)CCC/C=C\C[C@H]1[C@H](CNS(=O)(=O)c2ccc(Cl)c(Cl)c2)C2CC1(c1ccc(-c3ccccc3)cc1)CO2 (some centres not stated) — lower, 4.2
- Cc1ccc(S(=O)(=O)NC[C@@H]2C3CC(c4ccc(-c5ccccc5)cc4)(CO3)[C@H]2CC=CCCCC(=O)O)cc1 (some centres not stated) — lower, 4
- O=C(O)CCC/C=C\C[C@H]1[C@H](CNS(=O)(=O)c2ccc(Cl)cc2)C2CC1(c1ccc(-c3ccccc3)cc1)CO2 (some centres not stated) — lower, 0.4
- O=C(O)CC/C=C\C[C@H]1[C@H](CNS(=O)(=O)c2ccc(Cl)cc2)C2CC1(c1ccc(-c3ccccc3)cc1)CO2 (some centres not stated) — lower, 0.1

Target: T1, Thromboxane A2 receptor (Homo sapiens)
Test: Competition factor for Thromboxane A2 (TXA2) / Prostaglandin H2 (PGH2)-receptor was determined by CF=(ID50-test)/(ID50-standard); agonist
Format: functional

Point of comparison: `O=C(O)CCC/C=C/C[C@@H]1[C@@H](COCc2ccccc2)C2CC1(CCc1ccccc1)CO2` (some centres not stated), CF 750. Against it:
- CCCCC[C@H](O)/C=C/[C@H]1C2CC(CO2)[C@@H]1CC=CCCCC(=O)O (some centres not stated) — lower, 36
- CCCCC[C@H](O)/C=C/[C@H]1C2CC(C)(CO2)[C@@H]1C/C=C/CCCC(=O)O (some centres not stated) — lower, 320

Target: T1, Thromboxane A2 receptor (Homo sapiens)
Test: Competition factor for Thromboxane A2 (TXA2) / Prostaglandin H2 (PGH2)-receptor was determined by CF=(ID50-test)/(ID50-standard)

Point of comparison: `O=C(O)CCC/C=C/C[C@H]1[C@H](/C=N/Oc2ccc(F)cc2)C2CC1(c1ccc(-c3ccccc3)cc1)CO2` (some centres not stated), CF 16. Against it:
- Cc1ccc(S(=O)(=O)N[C@@H]2C3CC(c4ccc(-c5ccccc5)cc4)(CO3)[C@H]2C/C=C/CCCC(=O)O)cc1 (some centres not stated) — lower, 2
- O=C(O)CCC/C=C/C[C@H]1[C@H](NS(=O)(=O)c2ccc(F)cc2)C2CC1(c1ccc(F)cc1)CO2 (some centres not stated) — higher, 120
- Cc1ccc(S(=O)(=O)NC[C@@H]2C3CC(c4ccc(-c5ccccc5)cc4)(CO3)[C@H]2C/C=C\CCC(=O)O)cc1 (some centres not stated) — lower, 0.05
- CCCCC[C@H](O)/C=C/[C@H]1C2CC(Cc3ccccc3)(CO2)[C@@H]1C/C=C/CCCC(=O)O (some centres not stated) — higher, 250
- N#Cc1ccc(COC[C@H]2C3CC(c4ccc(F)cc4)(CO3)[C@@H]2C/C=C/CCCC(=O)O)cc1 (some centres not stated) — higher, 900
- O=C(O)CCC/C=C/C[C@@H]1[C@@H](COCc2ccccc2)C2CC1(Cc1ccc(-c3ccccc3)cc1)CO2 (some centres not stated) — higher, 800
- CC12COC(C1)[C@H](COCc1ccccc1)[C@H]2C/C=C/CCCC(=O)O (some centres not stated) — higher, > 1000
- O=C(O)CCCCCC[C@H]1[C@H](CNS(=O)(=O)c2ccc(Cl)cc2)C2CC1(c1ccc(-c3ccccc3)cc1)CO2 (some centres not stated) — lower, 1.4
- CCCC#CC12COC(C1)[C@H](COCc1ccccc1)[C@H]2C/C=C/CCCC(=O)O (some centres not stated) — higher, 90
- O=C(O)CCC/C=C/C[C@@H]1[C@@H](COCc2ccccc2)C2CC1(C#Cc1ccccc1)CO2 (stereo in doubt) — higher, 30
- CCCCC[C@H](O)/C=C/[C@H]1C2CC(CCc3ccccc3)(CO2)[C@@H]1C/C=C/CCCC(=O)O (some centres not stated) — higher, 420
- O=C(O)CCC/C=C/C[C@H]1[C@H](COCc2ccccc2)C2CC1(c1ccc(F)cc1)CO2 (some centres not stated) — higher, 60
- Cc1ccc(S(=O)(=O)N[C@@H]2C3CC(c4cccc(F)c4)(CO3)[C@H]2C/C=C/CCCC(=O)O)cc1 (some centres not stated) — higher, 120
- O=C(O)CCC/C=C/C[C@H]1[C@H](/C=N/Oc2ccc(F)cc2)C2CC1(c1ccc(F)cc1)CO2 (some centres not stated) — the same, 16
- Cc1ccc(S(=O)(=O)NC[C@@H]2C3CC(c4ccc(-c5ccccc5)cc4)(CO3)[C@H]2CCCCCC(=O)O)cc1 (some centres not stated) — lower, 0.1
- O=C(O)CCC/C=C/C[C@@H]1[C@@H](COCc2ccccc2)C2CC1(C#Cc1ccccc1)CO2 (stereo in doubt; 8a) — higher, 30
- O=C(O)CCC/C=C/C[C@@H]1[C@@H](COCc2ccccc2)C2CC1(Cc1ccccc1)CO2 (some centres not stated) — higher, 300
- O=C(O)CCCCCC[C@H]1[C@H](CNS(=O)(=O)c2ccc(Cl)c(Cl)c2)C2CC1(c1ccc(-c3ccccc3)cc1)CO2 (some centres not stated) — lower, 12
- O=C(O)CCC/C=C/C[C@@H]1[C@@H](/C=C/[C@@H](O)COc2ccc(F)cc2)C2CC1(c1ccc(F)cc1)CO2 (some centres not stated) — higher, 375
- O=C(O)CCC/C=C/C[C@H]1[C@H](COCc2ccccc2)C2CC1(c1ccccc1)CO2 (some centres not stated) — higher, 60
- Cc1ccc(S(=O)(=O)N[C@@H]2C3CC(c4ccc(F)cc4)(CO3)[C@H]2C/C=C/CCCC(=O)O)cc1 (some centres not stated) — higher, 170
- CCCCC[C@H](O)/C=C/[C@H]1C2CC(c3ccc(F)cc3)(CO2)[C@@H]1C/C=C/CCCC(=O)O (some centres not stated) — higher, 650
- O=C(O)CC/C=C\C[C@H]1[C@H](CNS(=O)(=O)c2ccc(F)cc2)C2CC1(c1ccc(-c3ccccc3)cc1)CO2 (some centres not stated) — lower, 0.05
- O=C(O)CCC/C=C/C[C@H]1[C@H](NS(=O)(=O)c2ccc(F)cc2)C2CC1(c1ccc(O)cc1)CO2 (some centres not stated) — higher, 30
- O=C(O)CCC/C=C/C[C@@H]1[C@@H](COCc2ccccc2)C2CC1(c1ccc(F)cc1)CO2 (some centres not stated) — higher, 125
- CCC#CC[C@H](C)[C@H](O)/C=C/[C@@H]1C2CC(c3ccc(F)cc3)(CO2)[C@H]1C/C=C/CCCC(=O)O (some centres not stated) — higher, 26
- Cc1ccc(S(=O)(=O)N[C@@H]2C3CC(c4ccc(O)cc4)(CO3)[C@H]2C/C=C/CCCC(=O)O)cc1 (some centres not stated) — higher, 520
- O=C(O)CCC/C=C/C[C@H]1[C@H](NS(=O)(=O)c2ccc(F)cc2)C2CC1(c1ccc(-c3ccccc3)cc1)CO2 (some centres not stated) — lower, 2
- CCCCC[C@H](O)/C=C/[C@@H]1C2CC(c3ccc(F)cc3)(CO2)[C@H]1C/C=C/CCCC(=O)O (some centres not stated) — higher, 25
- O=C(O)CCC/C=C/C[C@H]1[C@H](NS(=O)(=O)c2ccc(F)cc2)C2CC1(c1cccc(F)c1)CO2 (some centres not stated) — higher, 250
- O=C(O)CCC/C=C/C[C@H]1C2COC(C2)[C@@H]1COCc1ccccc1 (some centres not stated) — higher, > 1000
- O=C(O)CCC/C=C/C[C@H]1[C@H](COCc2ccccc2)C2CC1(C#Cc1ccccc1)CO2 (some centres not stated) — lower, 12
- O=C(O)CCC/C=C/C[C@H]1[C@H](/C=N/Oc2ccc(F)cc2)C2CC1(c1cccc(F)c1)CO2 (some centres not stated) — lower, 10
- O=C(O)CCCCC[C@H]1[C@H](CNS(=O)(=O)c2ccc(F)cc2)C2CC1(c1ccc(-c3ccccc3)cc1)CO2 (some centres not stated) — lower, 0.1
- CCC#CC[C@H](C)[C@H](O)C#C[C@@H]1C2CC(c3ccc(F)cc3)(CO2)[C@H]1C/C=C/CCCC(=O)O (some centres not stated) — lower, 4
- O=C(O)CCCCC[C@H]1[C@H](CNS(=O)(=O)c2ccc(Cl)c(Cl)c2)C2CC1(c1ccc(-c3ccccc3)cc1)CO2 (some centres not stated) — lower, 5
- O=C(O)CCC/C=C/C[C@@H]1[C@@H](COCc2ccccc2)C2CC1(c1ccccc1)CO2 (some centres not stated) — higher, 300
